Measurements taken from patent US20250222065A1, “CYCLIC POLYPEPTIDE FOR THE TREATMENT OF PHA TYPE 1B” (priority 2015, published 2025).

Columns and labels:
[1] = test system: WT αβγ-hENaC, WT δβγ-hENaC or mutant hENaC; assay: Amiloride block of whole-cell sodium current in transfected HEK-293 cells; type: cell-based, human; details: amiloride 10 μM, HEK-293 whole-cell sodium current
Experimental: Concentration-response curves were plotted, and EC50 values and Hill coefficients were determined using Microcal Origin 7.0. […] Finally, amiloride was added to enable estimation of the peptide-induced increase in amiloride-sensitive Na+ current. […] Amiloride was used at 10 μM for WT αβγ-hENaC, WT δβγ-hENaC or mutant hENaC; these concentrations yielded greater than 95% hENaC inhibition. Only cells with clear amiloride response were included in data analysis.

[2] = test system: PHA type IB mutant loss-of-function hENaC; assay: Whole cell patch clamp, HEK-293 cells expressing PHA type IB mutant hENaCs (overall conclusions); type: cell-based, human; details: whole cell electrophysiological assay, versus absence of peptide
Experimental: In addition, mutant delta ENaC subunits were also constructed by site-directed mutagenesis, containing homologous mutations to those observed in conserved positions in the other three ENaC subunits. […]
(§1) Whole cell currents were recorded as previously described (Shabbir et al, 2013).
Concentration-response curves were plotted, and EC50 values and Hill coefficients were determined using Microcal Origin 7.0. […]
After GOhm-seal (GΩ-seal) formation, and an equilibration period of 5 min, sodium current was recorded at Eh from —80 to +80 mV in 20 mV increments held for 1 min at each Eh.
(§2) Data represent the mean ±S.E. unless otherwise stated; experiments were performed on three to seven batches of independently transfected cells in the HEK-293 heterologous expression system. Statistical significance between different groups was determined using an unpaired, two-tailed Student's t test using GraphPad Prism version 3.02 (GraphPad Software, San Diego). […]

[3] = test system: αβγV543fs-hENaC; assay: Whole cell patch clamp, HEK-293 cells expressing PHA type IB frameshift mutant αβγV543fs-hENaC; type: cell-based, human; details: HEK-293, peptide concentration 220 nM, mean ± SE, n = 5; no peptide: loss-of-function; Table 2
Experimental: The ENaC-activating properties of cyclic peptides are tested electrophysiologically in vitro using whole cell and […] patch clamp techniques Hazemi et al, 2010; Tzotzos et al, 2013; Shabbir et al, 2013). A whole call patch clamp assay is used to measure the induced amiloride-sensitive Na+ current, calculate concentration-response curves and thus estimate the potency measured as effective concentration at half maximum response (EC50), for cyclic peptides.
In addition, mutant delta ENaC subunits were also constructed by site-directed mutagenesis, containing homologous mutations to those observed in conserved positions in the other three ENaC subunits.
Point mutations were introduced into cDNA encoding alpha, beta, gamma and delta ENaC using a commercially available site-directed mutagenesis kit (QuikChange Lightning Site-Directed Mutagenesis Kit; Agilent Technologies). […]
as §1, §2

[4] = molecular target: αβγV543fs-hENaC (human), P37088; assay: cell-based or functional assay
[5] = molecular target: αβG37Sγ-hENaC (human, UniProt P37088 1-669; P51168 1-640; P51170 1-649); assay: cell-based or functional assay
[6] = molecular target: αQ101Kβγ-hENaC (human, UniProt P37088 1-669; P51168 1-640; P51170 1-649); assay: cell-based or functional assay

N=C(N)NC(=O)c1nc(Cl)c(N)nc1N [Amiloride, amiloride]
hENaC inhibition [1]: greater than 95%

Cyclo(4-aminobutanoic acid-GQRETPEGAEAKPWYD) (not fully specified; cyclized via 4-aminobutanoic acid) [AP318]
Amiloride-sensitive sodium ion current through PHA-1B mutants in the presence of peptide [2]: significantly increased
Inward current measured (amiloride-sensitive current) [3]: 177.7 ± 6.5 pA

B1: AP318, Cyclo(4-aminobutanoic acid-…) (peptide)
peptide: GQRETPEGAEAKPWYD
modifications: here or on the partner: N-terminal 4-aminobutanoic acid (GABA); cyclic: amide bond between the amino group of N-terminal 4-aminobutanoic acid and the side chain carboxyl group of the C-terminal aspartic acid
Inward amiloride-sensitive current, whole cell patch clamp, HEK-293, peptide concentration 220 nM [4]: 178 pA

B2: AP318, Cyclo(4-aminobutanoic acid-GQRETPEGAEAKPWYD) (peptide)
peptide: GQRETPEGAEAKPWYD
modifications: N-terminal 4-aminobutanoic acid (GABA); cyclic: amide bond between the amino group of N-terminal 4-aminobutanoic acid and the side chain carboxyl group of the C-terminal aspartic acid
Inward amiloride-sensitive current, whole cell patch clamp, HEK-293, peptide concentration 220 nM [5]: 192 pA
Inward amiloride-sensitive current, whole cell patch clamp, HEK-293, peptide concentration 220 nM [6]: 177 pA
